Source: patent US20040176387A1, “Method of treating peripheral vascular diseases, peripheral neuropathies, and autonomic neuropathies” (Pfizer Inc, priority 2000, published 2004)

How the values were obtained:
Type in all cases: in vivo, human
[1] = Sildenafil treatment of diabetic foot ulcer in patients (case reports)
Text: During the treatment of-the erectile dysfunction it was noted that the foot ulcer was healing. This foot ulcer began approximately two years prior and the patient had been through vascular studies, had seen vascular surgeons, podiatrists, and had been in wound care clinics with minimal results at best. They had also been hospitalized for approximately a month on IV antibiotics, etc. and the threat was very real that the patient was going to require a below the knee amputation. The ulcer would appear to be healing at times only to reoccur to its pretreatment size and depth.

[2] = Sildenafil treatment of erectile dysfunction in patients (case reports)
Experimental: Patient #2 was suffering from chronic changes of both lower extremities secondary to peripheral vascular disease and diabetes mellitus. […] Patient #4 suffered from erectile dysfunction. They also suffered from onychiomycosis (fungal infection of the nailbed). They were placed on sildenafil treatment taking one 50 mg pill on an as-needed basis.

[3] = Sildenafil treatment of chronic lower extremity changes secondary to peripheral vascular disease (case report); conditions: Patient #2; diabetes mellitus
Text: Patient #2 was suffering from chronic changes of both lower extremities secondary to peripheral vascular disease and diabetes mellitus.

[4] = test system: onychiomycosis (fungal infection of the nailbed); test: Sildenafil treatment of onychiomycosis (fungal infection of the nailbed) (case report)
Text: In regards to other uses of cycli guanosine 3′,5′-monophosphate type five (cGMP PDE5) inhibitors, including the compound sildenafil, for which we have shown is effective in the treatment of diabetic foot ulcers, it is also within the concept of the present invention to treat other peripheral vascular diseases such as Raynaud's Phenomenon, including CREST syndrome, autoimmune diseases such as systemic lupus erythematosis, rheumatoid diseases and diabetic retinopathies. The treatment of the present invention would also be beneficial in peripheral and autonomic neuropathies or any other disease entity that results from small vessel disease and directly large vessel disease. […] The patient in this case was requesting treatment for erectile dysfunction and again the inventor discovered this unexpected beneficial result. The inventor has observed such results in varied diseases which have the common element of peripheral vascular disease or peripheral neuropathy. The beneficial effect of the method is believed to be due to increase vascular flow of the small vessels which aided the body in healing itself. Patient #4 suffered from erectile dysfunction. They also suffered from onychiomycosis (fungal infection of the nailbed). They were placed on sildenafil treatment taking one 50 mg pill on an as-needed basis.

[5] = Patient #4, one 50 mg pill on an as-needed basis

## CCCc1nn(C)c2c(=O)[nH]c(-c3cc(S(=O)(=O)N4CCN(C)CC4)ccc3OCC)nc12 [sildenafil, 5-[2-ethoxy-5-(4-methylpiperazin 1-ylsulphonyl)-phenyl]-1,6-dihydro-1-methyl-3-propylpyrazolo [4,3-d] pyrimidine-7-one]
[1]; Patient #1, insulin dependent diabetic, sildenafil taken for erectile dysfunction, before daily dosing
  diabetic foot ulcer size after sildenafil treatment began: the ulcer was decreasing in the size
[1]; Patient #1, 50 mg of sildenafil once a day, ulcer began approximately two years prior
  resolution of diabetic foot ulcer: complete resolution of the diabetic food ulcer in one month
[1]; Patient #1, continued on 50 mg once a day for the past two years
  reoccurrence of diabetic foot ulcer: without reoccurrence
[1]; general statement, diabetic patients
  effectiveness in the treatment of foot ulcers related to diabetes: very effective
[2]; Patient #2, diabetes mellitus and peripheral vascular disease
  erectile dysfunction: significantly improve
[2]; [5]
  erectile dysfunction: improved
[3]
  chronic changes of both lower extremities secondary to peripheral vascular disease: significantly improved or resolved completely
[4]; [5]
  fungal infection (onychiomycosis): cured
[4]; treated exclusively with sildenafil, without antifungal medication
  onychiomycosis, particularly of the lower extremity: resolved completely
